Results on 26 compounds are retold here after patent US20250388565A1, “ESTROGEN RECEPTOR ALPHA DEGRADERS AND METHODS OF USE THEREOF” (Relay Therapeutics, Inc., priority 2022, published 2025).

The experiment addresses T1, ERα protein (HiBiT-tagged) in ESR1_HiBiT KI MCF7 cells (Homo sapiens, UniProt P03372).
T1 sequence (P03372 1-595): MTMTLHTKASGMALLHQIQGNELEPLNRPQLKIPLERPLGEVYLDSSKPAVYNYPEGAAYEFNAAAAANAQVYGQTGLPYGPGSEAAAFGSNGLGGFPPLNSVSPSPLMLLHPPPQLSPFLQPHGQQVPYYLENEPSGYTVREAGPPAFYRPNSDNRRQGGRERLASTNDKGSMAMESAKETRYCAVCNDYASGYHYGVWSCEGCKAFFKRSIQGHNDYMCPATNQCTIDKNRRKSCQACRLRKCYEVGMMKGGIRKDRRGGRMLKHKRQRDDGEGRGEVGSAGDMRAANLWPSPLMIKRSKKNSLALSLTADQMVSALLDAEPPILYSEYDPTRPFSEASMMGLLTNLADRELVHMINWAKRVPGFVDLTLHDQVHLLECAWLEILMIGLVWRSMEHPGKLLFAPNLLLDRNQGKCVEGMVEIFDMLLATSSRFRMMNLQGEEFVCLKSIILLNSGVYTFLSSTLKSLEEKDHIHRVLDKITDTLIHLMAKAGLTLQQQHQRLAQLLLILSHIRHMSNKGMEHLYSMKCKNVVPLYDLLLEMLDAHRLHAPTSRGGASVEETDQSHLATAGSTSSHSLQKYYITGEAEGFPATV
The experiment can be described thus: Nano Glo HiBiT Lytic Degradation Assay. It counts as cell-based. The settings on record: 6 hours with compound, 14-point dose response 1:3, bell-shape curve fit, half-maximal effect of first Hill model, read-out: MCF7 ESR1 HiBiT - (DC50). Summed up:
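ESR1_HiBiT knock-in MCF7 cells were seeded 24 h before treatment, then exposed to compounds for 6 h at 37° C (14-point 1:3 curves, 10 mM top stock, 0.1% DMSO final, duplicates). HiBiT-ERα was read by lytic LgBiT luminescence, background-subtracted and normalized to DMSO. DC50 was taken from the half-maximal point of the first Hill component of a bell-shaped fit.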
What is called DC50 is the midpoint of the concentration-degradation curve. Take `Cc1cc(F)ccc1[C@@H]1OCc2cc(O)ccc2[C@@H]1c1ccc(N2CCC(CN3CCN(c4ccc5c(c4)CN([C@H]4CCC(=O)NC4=O)C5=O)CC3)CC2)cc1` [Compound I-372, (S)-3-(5-(4-((1-(4-((3R,4S)-3-(4-fluoro-2-methylphenyl)-7-hydroxyisochroman-4-yl)phenyl)piperidin-4-yl)methyl)piperazin-1-yl)-1-oxoisoindolin-2-yl)piperidine-2,6-dione]: the DC50 is 27 nM.

Regarding `O=C1CCC(N2Cc3cc([C@H]4CCN(CC5CCN(c6ccc([C@@H]7c8ccc(O)cc8CC[C@@H]7c7ccccc7)cc6)CC5)C[C@@H]4F)ccc3C2=O)C(=O)N1` (single isomer, unassigned) [II-89], the 50% degradation concentration (DC50) worked out at 1100 nM.

`O=C1CC[C@H](N2Cc3cc(N4CCN(C5CCN(c6ccc([C@@H]7c8ccc(O)cc8CC[C@@H]7c7ccccc7)cc6)CC5)CC4)ccc3C2=O)C(=O)N1` [II-31]: the half-maximal degradation concentration (DC50) amounted to 0.9 nM.

As for `O=C1CCC(c2ccc(N3CC[C@H]4[C@@H]3CCN4CC3CCN(c4ccc([C@@H]5c6ccc(O)cc6CC[C@@H]5c5ccccc5)cc4)CC3)cc2)C(=O)N1` (stereo partly drawn) [Compound I-177, 3-(4-((3aS,6aS)-4-((1-(4-((1R,2S)-6-hydroxy-2-phenyl-1,2,3,4-tetrahydronaphthalen-1-yl)phenyl)piperidin-4-yl)methyl)hexahydropyrrolo[3,2-b]pyrrol-1 (2H)-yl)phenyl)piperidine-2,6-dione], the DC50 is at least 10000 nM.

As to `O=C1CC[C@H](N2Cc3cc(N4CCN(CC5CCN(c6ccc([C@H]7c8ccc(O)cc8CC[C@H]7c7ccc8c(c7)CCCC8)cc6)CC5)CC4)ccc3C2=O)C(=O)N1` (single isomer, unassigned) [Compound I-60], the 50% degradation concentration (DC50) worked out at 1 nM.

With `O=C1CC[C@@H](N2Cc3cc(N4CCC(CN5CCC(n6cc([C@@H]7c8ccc(O)cc8CC[C@@H]7c7ccccc7)cn6)CC5)CC4)ccc3C2=O)C(=O)N1` (single isomer, unassigned) [Compound I-48], the DC50 is at least 10000 nM.

With `O=C1CCN(c2ccc(N3CC[C@]4(CCN(CC5CCN(c6ccc([C@@H]7c8ccc(O)cc8CC[C@@H]7c7ccccc7)cc6)CC5)C4)C3)cc2)C(=O)N1` (single isomer, unassigned) [Compound I-287], the DC50 was at least 10000 nM.

`COc1cc(N2CCC(CN3CCN(c4ccc5c(c4)CN([C@H]4CCC(=O)NC4=O)C5=O)CC3)CC2)ccc1[C@@H]1c2ccc(O)cc2CC[C@@H]1C1CCCCC1` [Compound I-152, (S)-3-(5-(4-((1-(4-((1S,2R)-2-cyclohexyl-6-hydroxy-1,2,3,4-tetrahydronaphthalen-1-yl)-3-methoxyphenyl)piperidin-4-yl)methyl)piperazin-1-yl)-1-oxoisoindolin-2-yl)piperidine-2,6-dione]: the DC50 stood at 1.43 nM.

Turning to `O=C1CCC(c2ccc(N3CCN(CCC4CCN(c5ccc([C@@H]6c7ccc(O)cc7CC[C@@H]6c6ccccc6)cc5)CC4)CC3)cc2)C(=O)N1` (single isomer, unassigned) [Compound I-8], the DC50 was at least 10000 nM.

Regarding `Cc1cc([C@H]2c3ccc(O)cc3CC[C@H]2c2ccccc2)ccc1N1CCC(CN2CCN(c3ccc4c(c3)CN([C@H]3CCC(=O)NC3=O)C4=O)CC2)CC1` (single isomer, unassigned) [II-43], the 50% degradation concentration (DC50) is 2 nM.

With `O=C1CC[C@H](N2Cc3cc(N4C[C@@H]5C[C@H]4CN5CC4CCN(c5ccc([C@H]6c7ccc(O)cc7CC[C@H]6c6ccccc6)cc5)CC4)ccc3C2=O)C(=O)N1` [II-8], the DC50 was at least 10000 nM.

As to `C[C@H](C1CC1)[C@H]1CC(F)(F)c2cc(O)ccc2[C@H]1c1ccc(N2CCC(CN3CCN(c4ccc5c(c4)CN([C@H]4CCC(=O)NC4=O)C5=O)CC3)CC2)cc1` (single isomer, unassigned) [Compound I-228], the DC50 was found to be 15 nM.

Take `O=C1CC[C@H](N2Cc3cc(N4CCN(CC5CCN(c6ccc([C@H]7c8ccc(O)cc8CC[C@H]7c7ccccc7F)cc6)CC5)CC4)ccc3C2=O)C(=O)N1` (single isomer, unassigned) [II-25]: the DC50 came to 1.17 nM.

On to `Cn1c(=O)n([C@@H]2CCC(=O)NC2=O)c2ccc(N3CCN(CC4CCN(c5ccc([C@@H]6c7ccc(O)cc7C(F)(F)C[C@@H]6c6ccccc6)cc5)CC4)CC3)cc21` (single isomer, unassigned) [Compound I-278], for which the DC50 was determined as 12.1 nM.

Turning to `O=C1CC[C@H](N2Cc3cc(N4CCN(CC5CCN(c6ccc([C@@H]7CCCc8cc(O)ccc87)cc6)CC5)CC4)ccc3C2=O)C(=O)N1` (single isomer, unassigned) [Compound I-103], the 50% degradation concentration (DC50) is at least 10000 nM.

For `C[C@H]1CN(c2ccc3c(c2)CN([C@H]2CCC(=O)NC2=O)C3=O)CCN1CC1CCN(c2ccc([C@@H]3c4ccc(O)cc4CC[C@@H]3c3ccccc3)cc2)CC1` (single isomer, unassigned) [II-1], the DC50 is 2 nM.

Regarding `O=C1CC[C@H](N2Cc3cc(N4CCN(CC5CCN(c6ccc([C@@H]7c8ccc(O)cc8CC[C@@H]7C7=CCCCC7)cc6)CC5)CC4)ccc3C2=O)C(=O)N1` (single isomer, unassigned) [Compound I-407], the DC50 came out at 0.19 nM.

As for `O=C1CC[C@H](N2Cc3cc(N4CCN(CC5CCN(c6ccc([C@@H]7c8ccc(O)cc8CC[C@@H]7c7cccc8c7CCC8)cc6)CC5)CC4)ccc3C2=O)C(=O)N1` (single isomer, unassigned) [Compound I-410], the 50% degradation concentration (DC50) was at least 10000 nM.

Turning to `Cn1nc(N2CCC(=O)NC2=O)c2ccc(N3CCN(CC4CCN(c5ccc([C@@H]6c7ccc(O)cc7C(F)(F)C[C@@H]6c6ccccc6)cc5)CC4)CC3)cc21` [Compound I-300, 1-(6-(4-((1-(4-((1R,2S)-4,4-difluoro-6-hydroxy-2-phenyl-1,2,3,4-tetrahydronaphthalen-1-yl)phenyl)piperidin-4-yl)methyl)piperazin-1-yl)-1-methyl-1H-indazol-3-yl)dihydropyrimidine-2,4 (1H,3H)-dione], the 50% degradation concentration (DC50) was determined as 3300 nM.

`Cc1ccc([C@@H]2CC(F)(F)c3cc(O)ccc3[C@@H]2c2ccc(N3CCC(CN4CCN(c5ccc6c(c5)CN(C5CCC(=O)NC5=O)C6=O)CC4)CC3)cc2)cc1` (stereo in doubt) [Compound I-321, (R)-3-(5-(4-((1-(4-((1S,2R)-4,4-difluoro-6-hydroxy-2-(p-tolyl)-1,2,3,4-tetrahydronaphthalen-1-yl)phenyl)piperidin-4-yl)methyl)piperazin-1-yl)-1-oxoisoindolin-2-yl)piperidine-2,6-dione]: the 50% degradation concentration (DC50) was determined as 0.44 nM.

For `O=C1CC[C@H](N2Cc3cc(N4CCN(CC5CCN(c6ccc([C@H]7c8ccc(O)cc8CC[C@H]7CC7CCCC7)cc6)CC5)CC4)ccc3C2=O)C(=O)N1` [Compound I-120, (S)-3-(5-(4-((1-(4-((1S,2S)-2-(cyclopentylmethyl)-6-hydroxy-1,2,3,4-tetrahydronaphthalen-1-yl)phenyl)piperidin-4-yl)methyl)piperazin-1-yl)-1-oxoisoindolin-2-yl)piperidine-2,6-dione], the DC50 was at least 10000 nM.

For the compound `O=C1CC[C@H](N2Cc3cc(N4CCN(CC5CCN(c6ccc([C@H]7c8ccc(O)cc8C(F)(F)C[C@H]7c7ccccc7F)cc6)CC5)CC4)ccc3C2=O)C(=O)N1` [Compound I-313, (S)-3-(5-(4-((1-(4-((1S,2R)-4,4-difluoro-2-(2-fluorophenyl)-6-hydroxy-1,2,3,4-tetrahydronaphthalen-1-yl)phenyl)piperidin-4-yl)methyl)piperazin-1-yl)-1-oxoisoindolin-2-yl)piperidine-2,6-dione], the half-maximal degradation concentration (DC50) is 15 nM.

Turning to `C[C@@H]1C[C@H](c2ccccc2)[C@H](c2ccc(N3CCC(CN4CCN(c5ccc6c(c5)CN([C@H]5CCC(=O)NC5=O)C6=O)CC4)CC3)cc2)c2ccc(O)cc21` (single isomer, unassigned) [Compound I-419], the DC50 came out at 2 nM.

Turning to `O=C1CC[C@H](N2Cc3cc(N4CCN(CC5CCN(c6ccc([C@@H]7c8ccc(O)cc8C(F)(F)C[C@@H]7c7ccccc7)c(F)c6)CC5)CC4)ccc3C2=O)C(=O)N1` [Compound I-199, (S)-3-(5-(4-((1-(4-((1S,2S)-4,4-difluoro-6-hydroxy-2-phenyl-1,2,3,4-tetrahydronaphthalen-1-yl)-3-fluorophenyl)piperidin-4-yl)methyl)piperazin-1-yl)-1-oxoisoindolin-2-yl)piperidine-2,6-dione], the half-maximal degradation concentration (DC50) came out at 0.33 nM.

In the case of `O=C1CC[C@H](N2Cc3cc(N4CCN(CC5CCN(c6cc(F)c([C@H]7c8ccc(O)cc8CC[C@H]7C7CCCCC7)c(F)c6)CC5)CC4)ccc3C2=O)C(=O)N1` [Compound I-118, (S)-3-(5-(4-((1-(4-((1R,2S)-2-cyclohexyl-6-hydroxy-1,2,3,4-tetrahydronaphthalen-1-yl)-3,5-difluorophenyl)piperidin-4-yl)methyl)piperazin-1-yl)-1-oxoisoindolin-2-yl)piperidine-2,6-dione], the DC50 was 600 nM.

Consider `O=C1CC[C@H](N2Cc3cc(N4C[C@H]5C[C@@H]4CN5CC4CCN(c5ccc([C@H]6c7ccc(O)cc7CC[C@H]6c6ccccc6)cc5)CC4)ccc3C2=O)C(=O)N1` (single isomer, unassigned) [II-6], for which the DC50 is at least 10000 nM.
